Measurements reported in US8558011B2, “Cold menthol receptor-1 antagonists” (Janssen Pharmaceutica, NV, priority 2010, dated 2013).
Where “and” joins values, the source holds several entries; their conditions need not be identical. Equal entries are not always repeated.

Target: T1, canine TRPM8 (Canis lupus familiaris, UniProt Q1A7N1)
T1 construct: expressed in transfected cells
Experiment: In Vitro Canine TRPM8 Functional Assay (Ca2+-sensitive fluorescent dye, icilin activation, FLIPR/FDSS)
Type: cell-based
Conditions: HEK293 cells stably expressing canine TRPM8, icilin activation; for IC50: eight-point dose-response; for % I (0.5 μM): compound at 0.5 μM; for % I (1 μM): compound at 1 μM
Method: The functional activity of compounds of Formula (I) was determined by measuring changes in intracellular calcium concentration using a Ca^2+-sensitive fluorescent dye. The changes in fluorescent signal were monitored by a fluorescence plate reader, either a FLIPR™ (Molecular Devices) or FDSS (Hamamatsu).
HEK293 cells stably expressing canine TRPM8 were routinely grown as monolayers in Dulbecco's minimum essential medium supplemented with 10% FBS, 1 mM L-glutamine, 100 units/mL penicillin, 100 ug/mL streptomycin and 400 μg/mL G418. Cells were maintained in 5% CO2 at 37° C. At 24 hrs prior to assay, cells were seeded in clear-base poly-D-lysine coated 384-well plates (BD Biosciences, NJ, USA) at a density of 5,000 cells per well in culture medium and grown overnight in 5% CO2 at 37° C. On assay day, growth media was removed and cells were loaded with Calcium 3 Dye (Molecular Devices) for 35 min at 37° C., under 5% CO2 and then for 25 min at room temperature and atmosphere. Subsequently, cells were tested for agonist-induced increases in intracellular Ca^2+ levels using FLIPR™ or FDSS. Cells were challenged with a compound of Formula (I) (at varying concentrations) and intracellular Ca^2+ was measured for 5 min prior to the addition of icilin to all wells to achieve a final concentration which produces approximately an 80% maximal response.
Basal FI was subtracted prior to normalizing data to percent of maximal response. Curves were generated using the average of quadruplicate wells for each data point, were analyzed using nonlinear regression of either sigmoidal dose response or sigmoidal dose response (variable slope). Finally, the EC50 and IC50 values were calculated with the best-fit dose curve determined by GraphPad Prism.

T1 sequence (Q1A7N1 1-1104): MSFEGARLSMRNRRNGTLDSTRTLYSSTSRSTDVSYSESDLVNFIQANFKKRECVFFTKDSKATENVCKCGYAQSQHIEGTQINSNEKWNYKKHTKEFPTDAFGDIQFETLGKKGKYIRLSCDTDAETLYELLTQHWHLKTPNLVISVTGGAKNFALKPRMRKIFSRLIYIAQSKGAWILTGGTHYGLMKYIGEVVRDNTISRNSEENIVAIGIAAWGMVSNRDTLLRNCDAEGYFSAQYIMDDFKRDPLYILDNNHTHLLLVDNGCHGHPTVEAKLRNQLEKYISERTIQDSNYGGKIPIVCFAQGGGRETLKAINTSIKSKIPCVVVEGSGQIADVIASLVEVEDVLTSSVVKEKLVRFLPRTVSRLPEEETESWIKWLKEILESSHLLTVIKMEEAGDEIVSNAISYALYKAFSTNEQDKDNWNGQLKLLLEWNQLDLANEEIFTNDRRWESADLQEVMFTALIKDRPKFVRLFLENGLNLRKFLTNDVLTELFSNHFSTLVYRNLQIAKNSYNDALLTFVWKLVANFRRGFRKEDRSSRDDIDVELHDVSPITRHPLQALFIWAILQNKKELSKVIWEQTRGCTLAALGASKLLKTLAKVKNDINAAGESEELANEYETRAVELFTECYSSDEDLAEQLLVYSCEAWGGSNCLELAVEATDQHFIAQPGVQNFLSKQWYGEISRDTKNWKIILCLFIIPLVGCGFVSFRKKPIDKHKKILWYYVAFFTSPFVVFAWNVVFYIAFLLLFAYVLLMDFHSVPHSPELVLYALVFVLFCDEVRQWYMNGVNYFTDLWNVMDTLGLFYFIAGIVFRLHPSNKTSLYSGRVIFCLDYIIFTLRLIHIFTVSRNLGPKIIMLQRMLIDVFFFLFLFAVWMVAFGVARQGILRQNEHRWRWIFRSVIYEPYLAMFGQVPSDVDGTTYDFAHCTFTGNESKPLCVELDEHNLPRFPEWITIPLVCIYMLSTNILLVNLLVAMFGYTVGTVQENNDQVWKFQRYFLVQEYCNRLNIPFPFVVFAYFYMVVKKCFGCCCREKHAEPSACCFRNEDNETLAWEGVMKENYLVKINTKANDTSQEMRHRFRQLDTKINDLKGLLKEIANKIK

Row | Compound | IC50 | % I (0.5 μM) | % I (1 μM) | % I (5 μM) (compound at 5 μM)
1 | CC(C)OP(=O)(OC(C)C)C(Cc1cccc(Cl)c1)c1sc2ccccc2c1Br (stereo not drawn) [Cpd 166] | 0.018 µM and 0.014 µM | 102% | 103% | –
2 | CCOP(=O)(OCC)C(Cc1ccc(C(F)(F)F)cc1F)c1sc2ccccc2c1Cl (stereo not drawn) [Cpd 291] | 0.156 µM | 103% | – | –
3 | CC(C)OP(=O)(OC(C)C)C(Cc1ccc(F)c(F)c1)c1oc2cccc(F)c2c1Br (stereo not drawn) [Cpd 205] | 0.05 µM | – | 101% | –
4 | CCOP(=O)(OCC)C(Cc1ccc2ccccc2c1)c1sc2ccccc2c1C (racemic) [Cpd 46] | 0.167 µM | – | 99% | –
5 | CCOP(=O)(OCC)C(Cc1cccc(Cl)c1F)c1sc2ccccc2c1C (racemic) [Cpd 23] | 0.096 µM | – | 100% | –
6 | CCOP(=O)(OCC)C(Cc1cc(Cl)ccc1Cl)c1sc2ccccc2c1C (racemic) [Cpd 47] | 0.167 µM | – | 100% | –
7 | CCOP(=O)(OCC)C(Cc1cc(F)cc(F)c1Cl)c1sc2ccccc2c1C (racemic) [Cpd 28] | 0.11 µM | – | 100% | –
8 | CCOP(=O)(OCC)C(Cc1ccc(OC)c(F)c1)c1sc2ccccc2c1Br (stereo not drawn) [Cpd 158] | 0.059 µM | 101% | – | –
9 | CCOP(=O)(OCC)C(Cc1cc(C(F)(F)F)ccc1F)c1sc2ccccc2c1Cl (stereo not drawn) [Cpd 286] | 0.127 µM | 102% | – | –
10 | CC(C)OP(=O)(OC(C)C)C(Cc1cc(F)cc(C(F)(F)F)c1)c1sc2ccccc2c1Cl (stereo not drawn) [Cpd 169] | 0.096 µM | 104% | – | –
11 | CCOP(=O)(OCC)C(Cc1cccc(OC(F)(F)F)c1)c1sc2ccccc2c1Br (stereo not drawn) [Cpd 145] | 0.119 µM and 0.116 µM | 103, % and 102% | – | –
12 | CC(C)OP(=O)(OC(C)C)C(Cc1cccc(C(F)(F)F)c1)c1sc2ccccc2c1Cl (stereo not drawn) [Cpd 170] | 0.073 µM | 103% | – | –
13 | CCOP(=O)(OCC)C(Cc1ccc(SC(F)(F)F)cc1)c1sc2ccccc2c1Br (stereo not drawn) [Cpd 153] | 0.043 µM | 103% | – | –
14 | CCOP(=O)(OCC)C(Cc1ccc(C(F)(F)F)cc1)c1sc2ccccc2c1Br (stereo not drawn) [Cpd 154] | 0.027 µM | 103% | – | –
15 | CCOP(=O)(OCC)C(Cc1ccc(Cl)cc1)c1sc2ccccc2c1Cl (stereo not drawn) [Cpd 293] | 0.156 µM | 103% | – | –
16 | CCOP(=O)(OCC)C(Cc1ccc(F)c(F)c1)c1sc2ccccc2c1-c1ccc(F)cc1 (stereo not drawn) [Cpd 220] | 0.207 µM | 101% | – | –
17 | CCOP(=O)(OCC)C(Cc1ccccc1Cl)c1sc2ccccc2c1Br (stereo not drawn) [Cpd 147] | 0.125 µM | 103% | – | –
18 | CCOP(=O)(OCC)C(Cc1ccc(F)c(O)c1)c1sc2ccccc2c1Br (stereo not drawn) [Cpd 225, [1-(3-Bromo-benzo[b]thiophen-2-yl)-2-(4-fluoro-3-hydroxy-phenyl)-ethyl]-phosphonic acid diethyl ester] | – | 103% | – | –
19 | CC(C)OP(=O)(OC(C)C)C(Cc1ccc(SC(F)(F)F)cc1)c1sc2ccccc2c1Cl (stereo not drawn) [Cpd 304] | 0.028 µM | 102% | – | –
20 | CCOP(=O)(OCC)C(Cc1ccc(F)cc1)c1sc2ccccc2c1Cl (stereo not drawn) [Cpd 284] | 0.079 µM and 0.065 µM | 103% and 102% | – | –
21 | CCOP(=O)(OCC)C(Cc1cc(C(F)(F)F)ccc1Cl)c1sc2ccccc2c1Br (stereo not drawn) [Cpd 148] | 0.172 µM | 103% | – | –
22 | CCOP(=O)(OCC)C(Cc1ccc(OC)c(C(F)(F)F)c1)c1sc2ccccc2c1Br (stereo not drawn) [Cpd 152] | 0.054 µM and 0.05 µM | 102% and 92% | – | –
23 | COc1c(F)c(F)c(CC(c2sc3ccccc3c2Br)P(=O)(OC(C)C)OC(C)C)c(F)c1F (stereo not drawn) [Cpd 161] | 0.019 µM | 103% | – | –
24 | CCOP(=O)(OCC)C(Cc1cccc(C(F)(F)F)c1F)c1sc2ccccc2c1C (racemic) [Cpd 37] | 0.127 µM | – | 100% | –

Row | Compound | IC50 | % I (0.5 μM) | % I (1 μM) | % I (5 μM) (compound at 5 μM)
25 | CC(C)OP(=O)(OC(C)C)C(Cc1cc(C(F)(F)F)ccc1F)c1sc2ccccc2c1Cl (stereo not drawn) [Cpd 172] | 0.105 µM | 104% | – | –
26 | CCOP(=O)(OCC)C(Cc1ccc(F)c(F)c1)c1sc2ccc(F)cc2c1C (stereo not drawn) [Cpd 45, [2-(3,4-Difluoro-phenyl)-1-(5-fluoro-3-methyl-benzo[b]thiophene-2-yl)-ethyl]-phosphonic acid diethyl ester] | – | – | 100% | –
27 | CCOP(=O)(OCC)C(Cc1ccc(SC)cc1)c1sc2ccccc2c1Br (stereo not drawn) [Cpd 247] | 0.121 µM | 103% | – | –
28 | CC(C)OP(=O)(OC(C)C)C(Cc1cc(C(F)(F)F)cc(C(F)(F)F)c1)c1sc2ccccc2c1Cl (stereo not drawn) [Cpd 171] | 0.221 µM | 95% | – | –
29 | CCOP(=O)(OCC)C(Cc1ccc(F)c(F)c1)c1sc2ccccc2c1-c1ccccc1F (stereo not drawn) [Cpd 216] | 0.126 µM | 100% | – | –
30 | CCOP(=O)(OCC)C(Cc1ccc(F)c(Cl)c1)c1sc2ccccc2c1Cl (stereo not drawn) [Cpd 297] | 0.04 µM | 103% | – | –
31 | CCOP(=O)(OCC)C(Cc1ccc(F)c(F)c1)c1sc2ccccc2c1-c1cccc(C(N)=O)c1 (stereo not drawn) [Cpd 218] | 0.483 µM | 79% | – | –
32 | CCOP(=O)(OCC)C(Cc1ccc(F)c(F)c1)c1sc2ccccc2c1-c1ccsc1 (stereo not drawn) [Cpd 208] | 0.104 µM | 104% | – | –
33 | CCOP(=O)(OCC)C(Cc1ccc(F)c(F)c1)c1oc2cccc(F)c2c1Br (stereo not drawn) [Cpd 206] | 0.098 µM | – | 100% | –
34 | CCOP(=O)(OCC)C(Cc1ccc(F)c(F)c1)c1sc2ccccc2c1-c1ccccc1O (stereo not drawn) [Cpd 215] | 0.085 µM | 101% | – | –
35 | COc1cc(CC(c2sc3ccccc3c2Br)P(=O)(OC(C)C)OC(C)C)c(F)cc1Cl (stereo not drawn) [Cpd 165] | 0.086 µM | 102% | – | –
36 | Cc1c(C(Cc2ccc(F)c(F)c2)P(=O)(OC(C)C)OC(C)C)oc2ccccc12 (racemic) [Cpd 11] | 0.043 µM and 0.047 µM | – | 99% and 103% | –
37 | CCOP(=O)(OCC)C(Cc1ccc(Cl)c(Cl)c1)c1sc2ccccc2c1Br (stereo not drawn) [Cpd 24, [1-(3-Bromo-benzo[b]thiophen-2-yl)-2-(3,4-dichloro-phenyl)-ethyl]-phosphonic acid diethyl ester] | – | – | 100% | –
38 | CCOP(=O)(OCC)C(Cc1ccc(F)c(OC)c1)c1sc2ccccc2c1Br (stereo not drawn) [Cpd 156] | – | 103% | – | –
39 | CC(C)OP(=O)(OC(C)C)C(Cc1ccc(F)c(Cl)c1)c1sc2ccccc2c1Br (stereo not drawn) [Cpd 248] | 0.021 µM | 104% | – | –
40 | CCC(C)P(=O)(C(C)CC)C(OCc1ccc(F)c(F)c1)c1sc2ccccc2c1Br (stereo not drawn) [Cpd 204] | 0.092 µM | – | 100% | –
41 | CCOP(=O)(OCC)C(Cc1cccc(C(F)(F)F)c1)c1cc2ccccc2s1 (racemic) [Cpd 39] | 0.141 µM | – | 100% | –
42 | CC(C)OP(=O)(OC(C)C)C(Cc1ccc(F)c(F)c1)c1sc2ccccc2c1C(C)C (racemic) [Cpd 19] | 0.068 µM | – | 100% | –
43 | CCOP(=O)(OCC)C(Cc1ccc(C(F)(F)F)cc1)c1sc2ccccc2c1Cl (stereo not drawn) [Cpd 285] | 0.125 µM | 103% | – | –
44 | CCOP(=O)(Cc1cc2ccccc2s1)OCc1ccccc1F (stereo not drawn) [Cpd 109, Benzo[b]thiophen-2-ylmethyl-phosphonic acid ethyl ester 2-fluoro-benzyl ester] | – | – | 17% | –
45 | CC(=O)OCCOP(=O)(OCCOC(C)=O)C(Cc1ccc(F)c(F)c1)c1sc2ccccc2c1Br (stereo not drawn) [Cpd 213] | 0.202 µM | 100% | – | –
46 | CCOP(=O)(OCC)C(Cc1ccc(OC)c(C(F)(F)F)c1)c1sc2ccccc2c1Cl (stereo not drawn) [Cpd 292] | 0.216 µM | 99% | – | –
47 | CCOP(=O)(OCC)C(Cc1ccc(C(F)(F)F)c(F)c1)c1sc2ccccc2c1Br (stereo not drawn) [Cpd 144] | 0.058 µM | 101% | – | –
48 | CCOP(=O)(Cc1cc2ccccc2s1)OCc1ccccc1Cl (stereo not drawn) [Cpd 105] | 1.01 µM | – | 48% | 100%
